Entries after “also recorded” stand apart in the source; their conditions may differ.
Columns and labels:
Type in all cases: cell-based
[1] = system: AML cells (MV4-11 (FLT3-ITD) and Kasumi-1 (KITmut)); experiment: Differentiation marker CD11b, flow cytometry; conditions: MV4-11 and Kasumi-1
Method: Cells (1×10^6) were washed and passed through a […] filter (BD), then re-suspended in 200 μL binding buffer with or without 5 μL AnnexinV (for apoptosis detection) or CD11b (for maturation detection) antibody (BD Biosciences, Billerica, Mass.). After 15 min. of incubation cells were washed with PBS, re-suspended in 500 μL flow buffer and analyzed on a FACSCalibur cytometer (BD Biosciences). For apoptosis detection, 5 μL propidium iodide (PI) (BD Biosciences) was added to cell before running flow cytometry. Sorting for GFP-positive cells was carried out on BD FACS Aria instrument after filtering and washing cells 2× with ice cold PBS supplemented with 2% calf bovine serum and re-suspending in FACS buffer.
PRMT5 inhibition by C12 was also effective in promoting apoptosis and differentiation.
The increase in CD11b expression in AML cells lines followed a dose-dependent manner.

multiple cell lines = experiment: Proliferation of multiple cell lines (FIG. 59); conditions: FIG. 59A-E
Method: Proliferation of multiple cell lines was evaluated for CMPD 5, CMPD 7, HLCL61, HLCL-65, and HLCL-66 (FIG. 59A-E).

[2] = system: symmetrically dimethylated H3 (H3R8me2) and H4 (H4R3me2) in AML samples; experiment: Western blotting of PRMT5 histone marks; conditions: FIG. 33B, listed as C12
Method: Whole cell lysates were prepared by suspending cell pellets in RIPA buffer for 20 min (1% NP-40, 0.1% SDS, 150 mM NaCl, 50 mM Tris, pH 8.0), then supplemented with 1× complete EDTA free protease inhibitor (Roche) and 1× PhosStop (Roche). Lysates were separated by 4-20% SDS-PAGE and transferred to PVDF membrane (GE Healthcare, Piscataway, N.J.). Membranes were blocked with 5% milk or BSA in 1×TBS with 0.1% Tween 20 for 1 hour at room temperature with shaking. Primary antibodies for ACTIN, GAPDH and FLT3 (Santa Cruz Biotechnology, Santa Cruz Calif.), P65 (Cell signaling), PRMT5 and SP1 (Millipore), H4R3, H3R8, H3 and H4 (Abcam), were diluted 1:1000 or 1:2000 in 5% milk or BSA and incubated for 1-2 hr at room temperature. Membranes were washed using 1×TBS-T, incubated with HRP-conjugated secondary antibodies diluted in 1×TBS-T with 5% milk or BSA, washed, and developed using SuperSignal West Dura Chemiluminescent Substrate (Thermo Scientific). Whole cell lysate (at least 500 μg) was used to pull down protein complexes using Catch and Release v2.0 Reversible Immunoprecipitation System (Millipore) and ˜4 μg antibodies against PRMT5, SP1, p65 and 1 μg normal IgG as negative control (Millipore). Denatured pull down samples were subjected to regular western blotting with exception of using TrueBlot IP secondary antibody (Rockland) for immunodetection. […]

[3] = system: H4R3me2 binding to miR-29b regulatory site; experiment: ChIP assay at miR-29b regulatory site
Method: Cross-linked chromatin was prepared by incubating cells in 1% formaldehyde for 10 min at room temperature and quenching with ice cold 1M Glycine. Cells were sonicated in 1% SDS lysis buffer and sheared chromatin was used to pull down protein/DNA complexes using antibodies against SP1, p65 (ChIP-grade Millipore), H4R3me2, H3R8me2 (Abcam) and RNA Pol II as positive control and normal IgG (Millipore) as negative control. Reverse cross-linked DNA was purified using QIAquick PCR Purification kit (Qiagen) and quantitative real-time PCR was carried out using SYBER green incorporation and primers designed for either FLT3 promoter region (sequenceF:R:) or miR-29b enhancer region (sequenceF:R:). DNA signals were calculated relative to input DNA amount and in comparison to expression values of negative control IgG.
The regulatory region of pri-miR-29b was later checked for possible docking of PRMT5 (indirect binding) or H3R8me2 and/or H4R3me2 (direct binding) using ChIP assay with and without PRMT5 inhibition. […] The efficiency of miR-29b in modulating SP1 was confirmed by miR-29b gain- and loss-of function assays in AML cells, and significant suppression of SP1 in miR-29b overexpressing cells was detected, while SP1 was re-expressed when cells were treated with miR-29b knockdown (FIGS. 49A and 49B). […]

miR-29b in AML cells = experiment: miR-29b levels, qRT-PCR
Method: Total RNA was extracted using TriZol reagent (Invitrogen) and subjected to Reverse Transcription using SuperScript III reagents (Invitrogen). Quantitative Real-Time PCR was performed on resulting cDNA using commercially available TaqMan Gene Expression Assay primers and probes, and the 7900HT Fast Real-Time PCR System (Applied Biosystems). Mature microRNA levels were quantified using reverse transcription product made with TaqMan MicroRNA Reverse Transcription Kit (Life Technologies).
The regulatory region of pri-miR-29b was later checked for possible docking of PRMT5 (indirect binding) or H3R8me2 and/or H4R3me2 (direct binding) using ChIP assay with and without PRMT5 inhibition. […] The efficiency of miR-29b in modulating SP1 was confirmed by miR-29b gain- and loss-of function assays in AML cells, and significant suppression of SP1 in miR-29b overexpressing cells was detected, while SP1 was re-expressed when cells were treated with miR-29b knockdown (FIGS. 49A and 49B). […] As a result, SP1 transcription activity may increase, for example, in response to removal of miR-29b inhibitory effects and active SP1 in turn may promote FLT3 expression.
Referring to FIG. 50A-C, a qRT-PCR assay was used to measure transcript levels of pri-miR-29b (isoforms pri-miR-29b-1 and pri-miR-29b-2) in AML cell lines and patient blasts following PRMT5 inhibition. […]

CCn1c2ccccc2c2cc(CNCc3ccccc3OC)ccc21 [HLCL-61]
early differentiation marker CD11b [1]: dose-dependent up-regulation | potency, proliferation of multiple cell lines (multiple cell lines): low micromolar range | methylation inhibition of histones H3 and H4 [2]: most effective; also recorded: down-regulation of symmetrically dimethylated H3 (H3R8me2) and H4 (H4R3me2) | binding of H4R3me2 to miR-29b regulatory site [3]: significant decrease in binding | pri-miR-29b transcript levels (pri-miR-29b-1 and pri-miR-29b-2) (miR-29b in AML cells; AML cell lines and patient blasts): substantial and dose-dependent increase | miR-29b levels (miR-29b in AML cells; MV4-11 and THP-1 cells): significant increase in miR-29b levels

— patent publication US9856218B2, “Inhibitors of PRMT5 and methods of their use” (Ohio State Innovation Foundation, priority 2013, dated 2018)
